Test results reported in ChEMBL document CHEMBL3244132, “Semisynthetic aminoglycoside antibacterials. 6. Synthesis of sisomicin, Antibiotic G-52, and novel 6'-substituted analogues of sisomicin from aminoglycoside 66-40C” (J Med Chem, 1978).
Values after ≈ are worked out from the molar mass of the structure shown. Active and inactive are the calls of the source. The rule behind the calls is not given here.

Key:
Escherichia coli [1] = assay: Antimicrobial activity against Escherichia coli ATCC 10536 by tube dilution method; format: functional
Escherichia coli [2] = assay: Antimicrobial activity against Escherichia coli Baker 2 carrying APH(3')-I by tube dilution method; format: functional
Escherichia coli [3] = assay: Antimicrobial activity against Escherichia coli LA290R55 carrying ANT(2'') by tube dilution method; format: functional
Escherichia coli [4] = assay: Antimicrobial activity against Escherichia coli JR88 carrying AAC(3) by tube dilution method; format: functional
Escherichia coli [5] = assay: Antimicrobial activity against Escherichia coli HL97/W677 carrying AAC(6') by tube dilution method; format: functional
Pseudomonas aeruginosa [6] = assay: Antimicrobial activity against Pseudomonas aeruginosa St. M. 762 by tube dilution method; format: functional
Pseudomonas aeruginosa [7] = assay: Antimicrobial activity against Pseudomonas aeruginosa St. M. 1395 by tube dilution method; format: functional
Pseudomonas aeruginosa [8] = assay: Antimicrobial activity against Pseudomonas aeruginosa Stone 130 carrying AAC(3) by tube dilution method; format: functional
Pseudomonas aeruginosa [9] = assay: Antimicrobial activity against Pseudomonas aeruginosa GN 315 carrying AAC(6') by tube dilution method; format: functional
Klebsiella pneumoniae [10] = assay: Antimicrobial activity against Klebsiella pneumoniae Adler 17 carrying APH(3')-I by tube dilution method; format: functional
Klebsiella pneumoniae [11] = assay: Antimicrobial activity against Klebsiella pneumoniae Georgetown 3694 carrying APH(2'') by tube dilution method; format: functional
Providencia = assay: Antimicrobial activity against Providencia 164 carrying AAC(2')-I by tube dilution method; format: functional
Proteus mirabilis = assay: Antimicrobial activity against Proteus mirabilis Harding by tube dilution method; format: functional
Providencia rettgeri [12] = assay: Antimicrobial activity against Providencia rettgeri Membel by tube dilution method; format: functional
Providencia rettgeri [13] = assay: Antimicrobial activity against Providencia rettgeri Anderson by tube dilution method; format: functional
Serratia marcescens = assay: Antimicrobial activity against Serratia marcescens Dalton by tube dilution method; format: functional
Salmonella typhimurium = assay: Antimicrobial activity against Salmonella typhimurium Gr. B. by tube dilution method; format: functional, Salmonella enterica subsp. enterica serovar Typhimurium; details: Salmonella enterica
Bacillus subtilis = assay: Antimicrobial activity against Bacillus subtilis ATCC 6633 by tube dilution method; format: functional
Staphylococcus aureus [14] = assay: Antimicrobial activity against Staphylococcus aureus 209 P by tube dilution method; format: functional
Staphylococcus aureus [15] = assay: Antimicrobial activity against Staphylococcus aureus Wood by tube dilution method; format: functional
Staphylococcus aureus [16] = assay: Antimicrobial activity against Staphylococcus aureus Ziegler by tube dilution method; format: functional
Staphylococcus aureus [17] = assay: Antimicrobial activity against Staphylococcus aureus 59N by tube dilution method; format: functional
Streptococcus pyogenes [18] = assay: Antimicrobial activity against Streptococcus pyogenes C by tube dilution method; format: functional
Streptococcus pyogenes [19] = assay: Antimicrobial activity against Streptococcus pyogenes 27 by tube dilution method; format: functional
Streptococcus pyogenes [20] = assay: Antimicrobial activity against Streptococcus pyogenes Group A Cruz by tube dilution method; format: functional
Streptococcus pyogenes [21] = assay: Antimicrobial activity against Streptococcus pyogenes Alvarez by tube dilution method; format: functional
[22] = Acute toxicity in albino CF1 mouse; format: organism-based; details: in vivo
Trichomonas vaginalis = assay: Antiprotozoal activity against Trichomonas vaginalis after 48 hrs; format: functional
Entamoeba histolytica = assay: Antiprotozoal activity against Entamoeba histolytica JH; format: functional
Histomonas meleagridis [23] = assay: Antiprotozoal activity against Histomonas meleagridis; format: functional
Histomonas meleagridis [24] = assay: Antiprotozoal activity against Histomonas meleagridis at 20 ug/ml; format: functional
[25] = test system: Heligmosomoides polygyrus; assay: Anthelmintic activity against Nematospiroides dubius infected in mouse at 195 mg/kg qd for 5 days administered after 2 weeks of infection; format: functional, organism-based; design: dose 195 mg/kg
Rodentolepis nana = assay: Anthelmintic activity against Hymenolepis nana infected in mouse at 195 mg/kg qd for 5 days administered after 2 weeks of infection; format: functional, organism-based; design: dose 195 mg/kg
Syphacia obvelata = assay: Anthelmintic activity against Syphacia obvelata infected in mouse at 195 mg/kg qd for 5 days administered after 2 weeks of infection; format: functional, organism-based; design: dose 195 mg/kg

| Structure (SMILES) | MIC (Escherichia coli [1]) [mg/L] | MIC (Escherichia coli [2]) [mg/L] | MIC (Escherichia coli [3]) [mg/L] | MIC (Escherichia coli [4]) [mg/L] | MIC (Escherichia coli [5]) [mg/L] | MIC (Pseudomonas aeruginosa [6]) [mg/L] | MIC (Pseudomonas aeruginosa [7]) [mg/L] | MIC (Pseudomonas aeruginosa [8]) [mg/L] | MIC (Pseudomonas aeruginosa [9]) [mg/L] | MIC (Klebsiella pneumoniae [10]) [mg/L] | MIC (Klebsiella pneumoniae [11]) [mg/L] | MIC (Providencia) [mg/L] | MIC (Proteus mirabilis) [mg/L] | MIC (Providencia rettgeri [12]) [mg/L] | MIC (Providencia rettgeri [13]) [mg/L] | MIC (Serratia marcescens) [mg/L] | MIC (Salmonella typhimurium) [mg/L] | MIC (Bacillus subtilis) [mg/L] | MIC (Staphylococcus aureus [14]) [mg/L] | MIC (Staphylococcus aureus [15]) [mg/L] | further results |
| --- | --- | --- | --- | --- | --- | --- | --- | --- | --- | --- | --- | --- | --- | --- | --- | --- | --- | --- | --- | --- | --- |
| CNCC1=CC[C@@H](N)[C@@H](O[C@H]2[C@H](O)[C@@H](O[C@H]3OC[C@](C)(O)[C@H](NC)[C@H]3O)[C@H](N)C[C@@H]2N)O1 | 0.3 (≈ 0.65 µM) | 0.75 (≈ 1.62 µM) | 17.5 (≈ 37.9 µM) | > 25 | 0.75 (≈ 1.62 µM) | 0.3 (≈ 0.65 µM) | 0.3 (≈ 0.65 µM) | > 25 | 0.3 (≈ 0.65 µM) | 0.075 (≈ 0.162 µM) | > 25 | > 25 | 0.75 (≈ 1.62 µM) | 3 (≈ 6.5 µM) | > 25 | 0.3 (≈ 0.65 µM) | 3 (≈ 6.5 µM) | < 0.01 | < 0.01 | < 0.01 | MIC (Staphylococcus aureus [16]): 0.03 mg/L (≈ 0.065 µM); MIC (Staphylococcus aureus [17]): 0.03 mg/L (≈ 0.065 µM); MIC (Streptococcus pyogenes [18]): 3 mg/L (≈ 6.5 µM); MIC (Streptococcus pyogenes [19]): 0.3 mg/L (≈ 0.65 µM); MIC (Streptococcus pyogenes [20]): 0.3 mg/L (≈ 0.65 µM); MIC (Streptococcus pyogenes [21]): > 25 mg/L; LD50 [22]: 50 mg/kg; Activity (Trichomonas vaginalis): inactive; Activity (Entamoeba histolytica): inactive; Activity (Histomonas meleagridis [23]): inactive |
| CN[C@@H]1[C@@H](O)[C@@H](O[C@@H]2[C@@H](O)[C@H](O[C@H]3OC(CN)=CC[C@H]3N)[C@@H](N)C[C@H]2N)OC[C@]1(C)O [SISOMICIN] | 0.75 (≈ 1.68 µM) | 0.75 (≈ 1.68 µM) | 7.5 (≈ 16.8 µM) | 17.5 (≈ 39.1 µM) | 7.5 (≈ 16.8 µM) | 0.3 (≈ 0.67 µM) | 0.3 (≈ 0.67 µM) | 17.5 (≈ 39.1 µM) | 7.5 (≈ 16.8 µM) | 0.3 (≈ 0.67 µM) | 7.5 (≈ 16.8 µM) | 3 (≈ 6.7 µM) | 0.3 (≈ 0.67 µM) | 3 (≈ 6.7 µM) | > 25 | 0.3 (≈ 0.67 µM) | 0.3 (≈ 0.67 µM) | < 0.01 | 0.03 (≈ 0.067 µM) | 0.03 (≈ 0.067 µM) | MIC (Staphylococcus aureus [16]): 0.03 mg/L (≈ 0.067 µM); MIC (Staphylococcus aureus [17]): 0.03 mg/L (≈ 0.067 µM); MIC (Streptococcus pyogenes [18]): 17.5 mg/L (≈ 39.1 µM); MIC (Streptococcus pyogenes [19]): 3 mg/L (≈ 6.7 µM); MIC (Streptococcus pyogenes [20]): 7.5 mg/L (≈ 16.8 µM); MIC (Streptococcus pyogenes [21]): 7.5 mg/L (≈ 16.8 µM); LD50 [22]: 34 mg/kg; Activity (Trichomonas vaginalis): Active; Activity (Entamoeba histolytica): Active; Activity (Histomonas meleagridis [23]): Active |
| CN[C@@H]1[C@@H](O)[C@@H](O[C@@H]2[C@@H](O)[C@H](O[C@H]3OC(CO)=CC[C@H]3N)[C@@H](N)C[C@H]2N)OC[C@]1(C)O | 0.75 (≈ 1.67 µM) | 17.5 (≈ 39 µM) | > 25 | > 25 | 0.3 (≈ 0.669 µM) | 3 (≈ 6.69 µM) | 17.5 (≈ 39 µM) | > 25 | > 25 | 3 (≈ 6.69 µM) | > 25 | > 25 | 3 (≈ 6.69 µM) | > 25 | > 25 | 3 (≈ 6.69 µM) | 3 (≈ 6.69 µM) | 0.075 (≈ 0.167 µM) | 0.3 (≈ 0.669 µM) | 0.3 (≈ 0.669 µM) | MIC (Staphylococcus aureus [16]): 0.3 mg/L (≈ 0.669 µM); MIC (Staphylococcus aureus [17]): 0.075 mg/L (≈ 0.167 µM); MIC (Streptococcus pyogenes [18]): > 25 mg/L; MIC (Streptococcus pyogenes [19]): > 25 mg/L; MIC (Streptococcus pyogenes [20]): > 25 mg/L; MIC (Streptococcus pyogenes [21]): > 25 mg/L; LD50 [22]: 65 mg/kg; MIC (Trichomonas vaginalis): < 10 mg/L; MIC (Entamoeba histolytica): 10 mg/L (≈ 22.3 µM); Activity (Histomonas meleagridis [24]): inactive; Activity [25]: inactive; Activity (Rodentolepis nana): inactive; Activity (Syphacia obvelata): inactive |
| CN[C@@H]1[C@@H](O)[C@@H](O[C@@H]2[C@@H](O)[C@H](O[C@H]3OC(CNC(C)(C)C)=CC[C@H]3N)[C@@H](N)C[C@H]2N)OC[C@]1(C)O | 0.75 (≈ 1.49 µM) | 7.5 (≈ 14.9 µM) | 17.5 (≈ 34.7 µM) | > 25 | 3 (≈ 5.96 µM) | 7.5 (≈ 14.9 µM) | 17.5 (≈ 34.7 µM) | > 25 | 7.5 (≈ 14.9 µM) | 7.5 (≈ 14.9 µM) | > 25 | 17.5 (≈ 34.7 µM) | 3 (≈ 5.96 µM) | 3 (≈ 5.96 µM) | > 25 | 7.5 (≈ 14.9 µM) | 3 (≈ 5.96 µM) | < 0.01 | 0.03 (≈ 0.0596 µM) | 0.03 (≈ 0.0596 µM) | MIC (Staphylococcus aureus [16]): 0.03 mg/L (≈ 0.0596 µM); MIC (Staphylococcus aureus [17]): 0.75 mg/L (≈ 1.49 µM); MIC (Streptococcus pyogenes [18]): 17.5 mg/L (≈ 34.7 µM); MIC (Streptococcus pyogenes [19]): 7.5 mg/L (≈ 14.9 µM); MIC (Streptococcus pyogenes [20]): 3 mg/L (≈ 5.96 µM); MIC (Streptococcus pyogenes [21]): > 25 mg/L; LD50 [22]: 90 mg/kg; Activity (Trichomonas vaginalis): inactive; Activity (Entamoeba histolytica): inactive; Activity (Histomonas meleagridis [23]): inactive |
| CN[C@@H]1[C@@H](O)[C@@H](O[C@@H]2[C@@H](O)[C@H](O[C@H]3OC(CNCCc4ccccc4)=CC[C@H]3N)[C@@H](N)C[C@H]2N)OC[C@]1(C)O | 0.75 (≈ 1.36 µM) | 7.5 (≈ 13.6 µM) | > 25 | > 25 | 0.75 (≈ 1.36 µM) | > 25 | > 25 | > 25 | > 25 | > 25 | > 25 | > 25 | > 25 | > 25 | > 25 | > 25 | 17.5 (≈ 31.7 µM) | 0.03 (≈ 0.0544 µM) | 3 (≈ 5.44 µM) | 3 (≈ 5.44 µM) | MIC (Staphylococcus aureus [16]): 7.5 mg/L (≈ 13.6 µM); MIC (Staphylococcus aureus [17]): 3 mg/L (≈ 5.44 µM); MIC (Streptococcus pyogenes [18]): > 25 mg/L; MIC (Streptococcus pyogenes [19]): 17.5 mg/L (≈ 31.7 µM); MIC (Streptococcus pyogenes [20]): > 25 mg/L; MIC (Streptococcus pyogenes [21]): > 25 mg/L; LD50 [22]: 30 mg/kg; Activity (Trichomonas vaginalis): inactive; Activity (Entamoeba histolytica): inactive; Activity (Histomonas meleagridis [23]): inactive |
| CN[C@@H]1[C@@H](O)[C@@H](O[C@@H]2[C@@H](O)[C@H](O[C@H]3OC(CNCCO)=CC[C@H]3N)[C@@H](N)C[C@H]2N)OC[C@]1(C)O | 0.075 (≈ 0.153 µM) | 3 (≈ 6.1 µM) | 7.5 (≈ 15.3 µM) | > 25 | 0.75 (≈ 1.53 µM) | 0.3 (≈ 0.61 µM) | 0.3 (≈ 0.61 µM) | > 25 | 0.3 (≈ 0.61 µM) | 0.075 (≈ 0.153 µM) | > 25 | > 25 | 0.3 (≈ 0.61 µM) | 0.75 (≈ 1.53 µM) | > 25 | 0.75 (≈ 1.53 µM) | 0.75 (≈ 1.53 µM) | 0.3 (≈ 0.61 µM) | 0.03 (≈ 0.061 µM) | 0.03 (≈ 0.061 µM) | MIC (Staphylococcus aureus [16]): 0.03 mg/L (≈ 0.061 µM); MIC (Streptococcus pyogenes [18]): > 25 mg/L; MIC (Streptococcus pyogenes [20]): 17.5 mg/L (≈ 35.6 µM); MIC (Streptococcus pyogenes [21]): 17.5 mg/L (≈ 35.6 µM); LD50 [22]: 135 mg/kg; Activity (Trichomonas vaginalis): inactive; Activity (Entamoeba histolytica): inactive; Activity (Histomonas meleagridis [23]): inactive |
